From ChEMBL document CHEMBL1201862, “PubChem BioAssay data set” (2004)
Calls of active or inactive are those of the source.

Experiments:
[1] = viability loss in HeLa cells – cytotoxicity control for MgcRacGAP inhibitor project, dose response (AID 624300); assay type: functional
[2] = target: T1, Rac GTPase-activating protein 1 (Homo sapiens, UniProt Q9H0H5); experiment: blockers of MgcRacGAP-driven Rac1 GTP hydrolysis – biochemical, ADP Hunter fluorescence, primary and confirmatory, confirmation (AID 624330); assay type: functional
T1 sequence (Q9H0H5 whole entry): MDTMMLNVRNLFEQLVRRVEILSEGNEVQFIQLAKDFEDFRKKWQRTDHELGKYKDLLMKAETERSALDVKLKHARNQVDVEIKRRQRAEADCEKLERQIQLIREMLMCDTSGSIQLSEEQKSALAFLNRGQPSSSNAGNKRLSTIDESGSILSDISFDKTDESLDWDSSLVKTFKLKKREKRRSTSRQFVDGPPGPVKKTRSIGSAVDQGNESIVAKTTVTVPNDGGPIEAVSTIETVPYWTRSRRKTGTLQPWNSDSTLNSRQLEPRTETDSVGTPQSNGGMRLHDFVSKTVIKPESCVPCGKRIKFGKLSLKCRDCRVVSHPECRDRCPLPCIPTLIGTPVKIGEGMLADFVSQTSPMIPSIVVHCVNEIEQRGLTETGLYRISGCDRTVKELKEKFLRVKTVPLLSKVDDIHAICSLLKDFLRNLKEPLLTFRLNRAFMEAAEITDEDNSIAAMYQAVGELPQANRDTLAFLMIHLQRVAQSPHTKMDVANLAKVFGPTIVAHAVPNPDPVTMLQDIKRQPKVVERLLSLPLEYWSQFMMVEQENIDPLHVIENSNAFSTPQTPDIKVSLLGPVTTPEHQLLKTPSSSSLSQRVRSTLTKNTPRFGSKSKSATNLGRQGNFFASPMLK

[3] = target: T2, Trace amine-associated receptor 1 (Homo sapiens, UniProt Q96RJ0); experiment: Fluorescence-based cell-based high throughput dose response assay to identify agonists of the human trace amine associated receptor 1 (TAAR1).; assay type: functional
[4] = target: T2, Trace amine-associated receptor 1; experiment: Counterscreen for agonists of the human trace amine associated receptor 1 (hTAAR1): Fluorescence-based cell-based high throughput dose response assay to identify hTAAR1 agonist that also desensitize TAAR1 receptor response.; assay type: functional
cells [5] = assay type: functional, cell-based
cells [6] = assay type: functional, cell-based; remark: listed apart in the source
Caspase-3 = target: T3, Caspase-3 (Homo sapiens, UniProt P42574); experiment: Dose-response confirmation of uHTS inhibitor hits of Sentrin-Specific Protease 8 in a Caspase-3 Fluorescence assay.; assay type: functional
T3 sequence (P42574 whole entry): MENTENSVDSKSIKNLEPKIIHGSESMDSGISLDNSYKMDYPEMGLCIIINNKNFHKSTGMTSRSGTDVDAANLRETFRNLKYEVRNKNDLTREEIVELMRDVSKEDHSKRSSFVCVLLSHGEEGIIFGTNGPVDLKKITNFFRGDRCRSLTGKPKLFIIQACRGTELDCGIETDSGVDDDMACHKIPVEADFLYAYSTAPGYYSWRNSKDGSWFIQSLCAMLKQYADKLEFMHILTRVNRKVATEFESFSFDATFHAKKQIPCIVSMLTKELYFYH

Caspase-6 = target: T4, Caspase-6 (Homo sapiens, UniProt P55212); experiment: inhibition of CASP6 peptide cleavage – biochemical, VEID-R110 fluorescence, cherry-pick, dose response (AID 720632)
T4 sequence (P55212 whole entry): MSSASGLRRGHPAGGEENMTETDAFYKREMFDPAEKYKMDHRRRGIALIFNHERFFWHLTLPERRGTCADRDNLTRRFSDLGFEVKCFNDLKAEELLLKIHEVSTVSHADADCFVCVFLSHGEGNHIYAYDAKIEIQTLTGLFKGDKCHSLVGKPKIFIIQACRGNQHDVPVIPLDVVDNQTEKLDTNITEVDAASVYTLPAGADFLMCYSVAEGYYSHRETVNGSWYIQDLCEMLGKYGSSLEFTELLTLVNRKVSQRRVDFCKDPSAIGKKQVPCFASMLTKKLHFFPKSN

[7] = target: T5, Sentrin-specific protease 8 (Homo sapiens, UniProt Q96LD8); assay type: functional
T5 sequence (Q96LD8 whole entry): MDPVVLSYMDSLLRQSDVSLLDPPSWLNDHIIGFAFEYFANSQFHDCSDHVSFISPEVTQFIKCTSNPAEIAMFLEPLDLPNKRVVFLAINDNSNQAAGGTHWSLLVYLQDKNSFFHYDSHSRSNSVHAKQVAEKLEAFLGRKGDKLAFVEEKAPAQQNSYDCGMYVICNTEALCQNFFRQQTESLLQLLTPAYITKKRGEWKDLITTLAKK

[8] = target: T5, Sentrin-specific protease 8; assay type: functional; remark: listed apart in the source
[9] = target: T6, Methionyl-tRNA synthetase, putative (Trypanosoma brucei brucei, UniProt Q38C91); assay type: functional, Trypanosoma brucei brucei strain 927/4 GUTat10.1
[10] = target: T6, Methionyl-tRNA synthetase, putative; assay type: functional, Trypanosoma brucei brucei strain 927/4 GUTat10.1; remark: listed apart in the source
[11] = Counterscreen for inhibitors of Trypanosoma brucei methionyl tRNA synthetase (MetRS): Luminescence-based cell-based high throughput dose response assay to identify compounds that are cytotoxic to Jurkat human T lymphocyte cells.; assay type: functional
[12] = A549 cell cytotoxicity, dose response, cytotoxicity control, plate reader, cherry-pick, antagonist series (AID 743412); assay type: functional, cell-based
cells [13] = assay type: functional, cell-based; remark: listed apart in the source
[14] = target: Photoreceptor-specific nuclear receptor (Homo sapiens, UniProt Q9Y5X4); assay type: functional, cell-based;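 also: CHO-S cells with Gal4-NCOR and VP16-NR2E3 two-hybrid luciferase reporter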
[15] = luciferase reporter signal reduction – luminescence, H4-C neuroglioblastoma cells, dose response (AID 2458); assay type: functional, cell-based;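 also: H4 neuroglioblastoma cells stably carrying a luciferase reporter gene fusion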
[16] = alpha-synuclein stem-loop translation blockers – luminescence, H4 neuroglioblastoma cells, dose confirmation, confirmation (AID 2454); assay type: functional, cell-based;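 also: H4 neuroglioblastoma cells carrying an alpha-synuclein 5'UTR luciferase reporter; potency for inhibition of the luciferase signal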
[17] = blockade of melanocortin 4 receptor signaling – cell-based, plate reader, cherry pick, counter-screen for LGR2 antagonist project, dose response (AID 743444); assay type: functional;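 also: transfected HEK 293 cells stimulated with alpha-MSH peptide; potency of inhibitors of the alpha-MSH evoked signal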
[18] = target: T7, Heat shock factor protein 1 (Mus musculus, UniProt P38532); experiment: decrease of HSF1-responsive luciferase luminescence – cell-based, NIH3T3, dose retest, confirmation (AID 2382); assay type: functional;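 also: NIH3T3 fibroblasts with HSF1-driven luciferase reporter stressed by proteasome inhibitor MG132; luminescence from HSF1-driven luciferase expression after 8 hours of MG132 stress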
T7 sequence (P38532 whole entry): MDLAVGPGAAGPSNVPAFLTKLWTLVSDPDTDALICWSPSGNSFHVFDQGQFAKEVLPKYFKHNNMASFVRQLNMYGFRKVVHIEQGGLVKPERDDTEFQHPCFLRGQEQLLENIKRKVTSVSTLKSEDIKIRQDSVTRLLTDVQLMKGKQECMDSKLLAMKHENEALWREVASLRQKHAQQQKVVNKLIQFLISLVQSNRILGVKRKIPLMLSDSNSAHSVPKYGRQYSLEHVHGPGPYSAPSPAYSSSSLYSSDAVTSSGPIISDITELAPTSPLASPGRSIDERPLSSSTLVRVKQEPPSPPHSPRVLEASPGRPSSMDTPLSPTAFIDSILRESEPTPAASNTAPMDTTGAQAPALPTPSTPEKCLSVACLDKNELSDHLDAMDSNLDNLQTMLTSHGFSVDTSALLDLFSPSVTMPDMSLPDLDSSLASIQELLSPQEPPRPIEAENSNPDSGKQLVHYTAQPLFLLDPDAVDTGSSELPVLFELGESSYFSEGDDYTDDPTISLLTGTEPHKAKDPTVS

[19] = viability loss in HEK293 cells – cell-based, plate reader, cherry-picked samples, cytotoxicity control, dose response (AID 743446); assay type: functional
[20] = toxicity toward HepG2 liver cells – cell-based, plate reader, cherry-pick, antagonist series, cytotoxicity control, dose response (AID 743416); assay type: functional
[21] = Luminescence Cell-Based Dose Response HTS to Identify Inhibitors of 5'UTR Stem-Loop Driven Prion Protein mRNA Translation in H4 Neuroglioblastoma Cells. [Related pubchem assays: 1827 (Project Summary), 1813 (Primary HTS)]; assay type: functional
[22] = alpha-synuclein stem-loop luciferase translation blockers – H4 neuroglioma cells, luminescence, confirmation (AID 1988); assay type: functional, cell-based
[23] = blockers of bursicon-stimulated LGR2 cAMP reporter – cell-based, HEK293, CRE-luciferase reporter, cherry pick, set 2, dose response (AID 743343); assay type: functional;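 also: transfected cells were stimulated with diluted bursicon conditioned medium after compound addition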

T6 sequence (Q38C91 whole entry): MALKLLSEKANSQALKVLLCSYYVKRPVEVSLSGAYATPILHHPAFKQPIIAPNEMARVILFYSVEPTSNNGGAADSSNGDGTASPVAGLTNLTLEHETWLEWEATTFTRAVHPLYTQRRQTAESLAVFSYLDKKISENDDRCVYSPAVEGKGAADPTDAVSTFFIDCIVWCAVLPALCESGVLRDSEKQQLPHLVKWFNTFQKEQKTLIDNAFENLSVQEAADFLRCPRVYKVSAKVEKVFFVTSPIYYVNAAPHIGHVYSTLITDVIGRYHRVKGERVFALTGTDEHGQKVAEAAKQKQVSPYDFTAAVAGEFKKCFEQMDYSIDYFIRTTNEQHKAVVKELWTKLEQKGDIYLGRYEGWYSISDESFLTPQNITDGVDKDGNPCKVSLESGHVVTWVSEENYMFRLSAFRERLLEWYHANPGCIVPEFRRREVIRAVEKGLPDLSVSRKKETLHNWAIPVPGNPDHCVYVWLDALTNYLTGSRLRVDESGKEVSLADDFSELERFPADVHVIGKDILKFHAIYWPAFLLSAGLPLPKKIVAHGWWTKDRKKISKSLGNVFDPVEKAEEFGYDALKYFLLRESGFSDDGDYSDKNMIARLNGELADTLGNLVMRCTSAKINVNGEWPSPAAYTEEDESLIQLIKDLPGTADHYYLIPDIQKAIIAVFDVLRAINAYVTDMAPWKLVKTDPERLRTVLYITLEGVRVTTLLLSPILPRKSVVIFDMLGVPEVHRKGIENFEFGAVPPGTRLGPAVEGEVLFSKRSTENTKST
T2 sequence (Q96RJ0 whole entry): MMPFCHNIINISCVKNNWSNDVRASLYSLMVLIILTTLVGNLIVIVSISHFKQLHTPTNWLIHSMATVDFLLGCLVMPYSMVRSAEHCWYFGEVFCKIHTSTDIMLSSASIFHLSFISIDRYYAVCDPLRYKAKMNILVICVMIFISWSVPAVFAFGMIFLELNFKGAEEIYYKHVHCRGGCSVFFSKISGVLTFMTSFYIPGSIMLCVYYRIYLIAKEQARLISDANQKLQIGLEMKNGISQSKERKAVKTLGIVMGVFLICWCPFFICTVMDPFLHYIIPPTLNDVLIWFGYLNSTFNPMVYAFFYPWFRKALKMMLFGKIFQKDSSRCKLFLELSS
Chain of Photoreceptor-specific nuclear receptor (Q9Y5X4 whole entry, the tested form may be a part): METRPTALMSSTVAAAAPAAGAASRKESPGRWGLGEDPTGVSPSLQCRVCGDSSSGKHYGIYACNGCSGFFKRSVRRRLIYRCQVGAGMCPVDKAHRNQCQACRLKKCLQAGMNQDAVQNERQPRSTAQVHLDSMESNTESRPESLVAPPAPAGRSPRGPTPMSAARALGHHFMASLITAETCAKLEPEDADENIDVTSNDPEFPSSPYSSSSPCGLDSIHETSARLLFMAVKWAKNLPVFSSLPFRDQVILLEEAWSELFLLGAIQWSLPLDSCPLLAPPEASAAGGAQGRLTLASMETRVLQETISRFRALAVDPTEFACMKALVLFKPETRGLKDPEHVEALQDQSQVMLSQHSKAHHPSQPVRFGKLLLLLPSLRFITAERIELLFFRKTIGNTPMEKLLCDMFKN

With `COc1cc(/C=N/NC(=O)NC23CC4CC(CC(C4)C2)C3)ccc1O` the CC50 [1] was 100 µM (active) and the IC50 [2] was 54.5 µM (active).
With `O=C(O)/C=C/C(=O)NCCC1=CCCCC1` the EC50 [3] was 1.39 µM (active), the IC50 [4] was 7.65 µM (active) and the EC50 (cells [5]) was > 29.9 µM (inactive). For the same molecule, the IC50 (cells [6]) was > 29.9 µM (inactive).
With `O=C(COC(=O)c1ccc([N+](=O)[O-])o1)NCc1ccc(F)cc1` the IC50 (Caspase-3) was 99.7 µM (inactive), the AC50 (Caspase-6) was 40.7 µM (active) and the IC50 [7] was 6.4 µM (active). The IC50 [8] was 11.7 µM (active).
With `O=C(NCCCCc1ccccc1)Nc1cccc(F)c1` the IC50 [9] was 11.9 µM (inactive), the IC50 [10] was 15.5 µM (inactive) and the IC50 [11] was 83.3 µM (inactive).
For `Cc1cc(C(=O)Nc2ccc(Cl)cc2)c(C)n1-c1ccccc1`, the AC50 [12] was > 52 µM (inactive), the EC50 (cells [13]) was 1.43 µM (active) and the IC50 [14] was 0.017 µM (active). The EC50 [15] was 0.409 µM (active), the EC50 [16] was 0.149 µM (active) and the AC50 [17] was < 0.068 µM (active). For the same molecule, the EC50 [18] was < 0.16 µM (active), the AC50 [19] was > 52 µM (inactive) and the AC50 [20] was > 52 µM (inactive). For the same molecule, the EC50 [21] was 8.36 µM (active), the EC50 [22] was < 0.1 µM (active) and the AC50 [23] was < 0.068 µM (active).
